Patent US11498899B2, “Nitrone herbicides” (FMC Corporation, priority 2016, dated 2022)

How the values were obtained:
[1] = test system: barnyardgrass (Echinochloa crus-galli); assay: Test A preemergence, visual injury rating 0-100 (0 no effect, 100 complete control); format: in vivo; conditions: for Barnyardgrass plant response rating (0 to 100 scale): 125 g ai/ha; for Barnyardgrass plant response rating: 500 g ai/ha, 0 to 100 scale
[2] = test system: foxtail, green (green foxtail, Setaria viridis); assay: Test A preemergence, visual injury rating 0-100; format: in vivo; conditions: for Foxtail, Green plant response rating (0 to 100 scale): 125 g ai/ha; for Foxtail, Green plant response rating: 500 g ai/ha, 0 to 100 scale
kochia (Kochia scoparia) [3] = assay: Test A preemergence, visual injury rating 0-100; format: in vivo; conditions: for Kochia plant response rating (0 to 100 scale): 125 g ai/ha; for Kochia plant response rating: 500 g ai/ha, 0 to 100 scale
[4] = test system: pigweed (Amaranthus retroflexus); assay: Test A preemergence, visual injury rating 0-100; format: in vivo; conditions: for Pigweed plant response rating (0 to 100 scale): 125 g ai/ha; for Pigweed plant response rating: 500 g ai/ha, 0 to 100 scale
[5] = test system: ragweed (common ragweed, Ambrosia elatior); assay: Test A preemergence, visual injury rating 0-100; format: in vivo; conditions: for Ragweed plant response rating (0 to 100 scale): 125 g ai/ha; for Ragweed plant response rating: 500 g ai/ha, 0 to 100 scale
[6] = test system: ryegrass, Italian (Italian ryegrass, Lolium multiflorum); assay: Test A preemergence, visual injury rating 0-100; format: in vivo; conditions: for Ryegrass, Italian plant response rating (0 to 100 scale): 125 g ai/ha; for Ryegrass, Italian plant response rating: 500 g ai/ha, 0 to 100 scale
[7] = test system: barnyardgrass (Echinochloa crus-galli); assay: Test A postemergence, visual injury rating 0-100; format: in vivo; conditions: 0 to 100 scale
[8] = test system: blackgrass (Alopecurus myosuroides); assay: Test A postemergence, visual injury rating 0-100; format: in vivo; conditions: 0 to 100 scale
corn (Zea mays) = assay: Test A postemergence, visual injury rating 0-100; format: in vivo; conditions: 0 to 100 scale
[9] = test system: foxtail, green (green foxtail, Setaria viridis); assay: Test A postemergence, visual injury rating 0-100; format: in vivo; conditions: 0 to 100 scale
[10] = test system: galium (catchweed bedstraw, Galium aparine); assay: Test A postemergence, visual injury rating 0-100; format: in vivo; conditions: 0 to 100 scale
kochia (Kochia scoparia) [11] = assay: Test A postemergence, visual injury rating 0-100; format: in vivo; conditions: 0 to 100 scale
[12] = test system: pigweed (Amaranthus retroflexus); assay: Test A postemergence, visual injury rating 0-100; format: in vivo; conditions: 0 to 100 scale
[13] = test system: ragweed (common ragweed, Ambrosia elatior); assay: Test A postemergence, visual injury rating 0-100; format: in vivo; conditions: 0 to 100 scale
[14] = test system: ryegrass, Italian (Italian ryegrass, Lolium multiflorum); assay: Test A postemergence, visual injury rating 0-100; format: in vivo; conditions: 0 to 100 scale
[15] = test system: wheat (Triticum aestivum); assay: Test A postemergence, visual injury rating 0-100; format: in vivo; conditions: 0 to 100 scale
[16] = test system: ducksalad (Heteranthera limosa); assay: Test B flooded paddy test, visual rating 0-100; conditions: Flood, 250 g ai/ha, applied to paddy water, rated after 13 to 15 days
[17] = test system: barnyardgrass (Echinochloa crus-galli); assay: Test B flooded paddy test, visual rating 0-100; conditions: Flood, 250 g ai/ha, applied to paddy water, rated after 13 to 15 days
rice (Oryza sativa) = assay: Test B flooded paddy test, visual rating 0-100 (0 no effect, 100 complete control); conditions: Flood, 250 g ai/ha, applied to paddy water, rated after 13 to 15 days

CC1=[N+]([O-])C(C(=O)Nc2cccc(F)c2F)C(c2cccc(Br)c2)C1 (racemic) [Compound 19]
Barnyardgrass plant response rating (0 to 100 scale) [1]: 70 | Barnyardgrass plant response rating [1]: 90 | Foxtail, Green plant response rating (0 to 100 scale) [2]: 50 | Foxtail, Green plant response rating [2]: 90 | Kochia plant response rating (0 to 100 scale) (kochia (Kochia scoparia) [3]): 0 | Kochia plant response rating (kochia (Kochia scoparia) [3]): 60 | Pigweed plant response rating (0 to 100 scale) [4]: 20 | Pigweed plant response rating [4]: 60 | Ragweed plant response rating (0 to 100 scale) [5]: 20 | Ragweed plant response rating [5]: 50 | Ryegrass, Italian plant response rating (0 to 100 scale) [6]: 0 | Ryegrass, Italian plant response rating [6]: 40 | Barnyardgrass plant response rating ([7]; 125 g ai/ha): 10 | Barnyardgrass plant response rating ([7]; 500 g ai/ha): 90 | Blackgrass plant response rating ([8]; 125 g ai/ha): 20 | Blackgrass plant response rating ([8]; 500 g ai/ha): 60 | Corn plant response rating (corn (Zea mays); 125 g ai/ha): 30 | Corn plant response rating (corn (Zea mays); 500 g ai/ha): 80 | Foxtail, Green plant response rating ([9]; 125 g ai/ha): 30 | Foxtail, Green plant response rating ([9]; 500 g ai/ha): 60 | Galium plant response rating ([10]; 125 g ai/ha): 0 | Galium plant response rating ([10]; 500 g ai/ha): 30 | Kochia plant response rating (kochia (Kochia scoparia) [11]; 125 g ai/ha): 0 | Kochia plant response rating (kochia (Kochia scoparia) [11]; 500 g ai/ha): 30 | Pigweed plant response rating ([12]; 125 g ai/ha): 0 | Pigweed plant response rating ([12]; 500 g ai/ha): 20 | Ragweed plant response rating ([13]; 125 g ai/ha): 0 | Ragweed plant response rating ([13]; 500 g ai/ha): 20 | Ryegrass, Italian plant response rating ([14]; 125 g ai/ha): 0 | Ryegrass, Italian plant response rating ([14]; 500 g ai/ha): 40 | Wheat plant response rating ([15]; 125 g ai/ha): 0 | Wheat plant response rating ([15]; 500 g ai/ha): 70 | Ducksalad plant response rating (0 to 100 scale) [16]: 95 | Barnyardgrass plant response rating (0 to 100 scale) [17]: 85 | Rice plant response rating (0 to 100 scale) (rice (Oryza sativa)): 15

CC1=[N+]([O-])C(C(=O)Nc2cccc(F)c2F)C(c2ccc(Br)cc2)C1 (racemic) [Compound 20]
Barnyardgrass plant response rating (0 to 100 scale) [1]: 60 | Barnyardgrass plant response rating [1]: 90 | Foxtail, Green plant response rating (0 to 100 scale) [2]: 60 | Foxtail, Green plant response rating [2]: 90 | Kochia plant response rating (0 to 100 scale) (kochia (Kochia scoparia) [3]): 0 | Kochia plant response rating (kochia (Kochia scoparia) [3]): 50 | Pigweed plant response rating (0 to 100 scale) [4]: 60 | Pigweed plant response rating [4]: 80 | Ragweed plant response rating (0 to 100 scale) [5]: 20 | Ragweed plant response rating [5]: 60 | Ryegrass, Italian plant response rating (0 to 100 scale) [6]: 0 | Ryegrass, Italian plant response rating [6]: 20 | Barnyardgrass plant response rating ([7]; 125 g ai/ha): 10 | Barnyardgrass plant response rating ([7]; 500 g ai/ha): 50 | Blackgrass plant response rating ([8]; 125 g ai/ha): 0 | Blackgrass plant response rating ([8]; 500 g ai/ha): 30 | Corn plant response rating (corn (Zea mays); 125 g ai/ha): 0 | Corn plant response rating (corn (Zea mays); 500 g ai/ha): 0 | Foxtail, Green plant response rating ([9]; 125 g ai/ha): 0 | Foxtail, Green plant response rating ([9]; 500 g ai/ha): 60 | Galium plant response rating ([10]; 125 g ai/ha): 30 | Galium plant response rating ([10]; 500 g ai/ha): 40 | Kochia plant response rating (kochia (Kochia scoparia) [11]; 125 g ai/ha): 0 | Kochia plant response rating (kochia (Kochia scoparia) [11]; 500 g ai/ha): 30 | Pigweed plant response rating ([12]; 125 g ai/ha): 0 | Pigweed plant response rating ([12]; 500 g ai/ha): 40 | Ragweed plant response rating ([13]; 125 g ai/ha): 0 | Ragweed plant response rating ([13]; 500 g ai/ha): 30 | Ryegrass, Italian plant response rating ([14]; 125 g ai/ha): 0 | Ryegrass, Italian plant response rating ([14]; 500 g ai/ha): 30 | Wheat plant response rating ([15]; 125 g ai/ha): 0 | Wheat plant response rating ([15]; 500 g ai/ha): 30 | Ducksalad plant response rating (0 to 100 scale) [16]: 100 | Barnyardgrass plant response rating (0 to 100 scale) [17]: 95 | Rice plant response rating (0 to 100 scale) (rice (Oryza sativa)): 0
